The values below come from EP4455292A1, “A METHOD FOR DETECTING ECTOINE” (Kaunas University of Technology, priority 2023, dated 2024).

The subject of assay [1] is AraC-PBAD. The note with it: prior-art AraC-PBAD sensor, E. coli; cited from earlier work.
In assay [2] the test system is ectoine-inducible system EutR/PeutB. The assay can be described thus: E. coli-based ectoine biosensor (plasmid pEct-1), RFP reporter fluorescence response. In kind it is cell-based. The procedure:
(§1) The fluorescence and cell absorbance were measured at multiple time points. Freshly grown bacterial cells were used to inoculate 2 mL of MM containing appropriate antibiotics in 50-mL centrifuge tubes, and cell cultures were grown overnight at 200 rpm and 30 °C. To obtain logarithmically growing cells, E. coli and P. putida overnight cultures were diluted to 0.05 OD600, respectively, in 5 mL of fresh medium with antibiotic. After the cells were grown to an OD600 of 0.15-0.2, culture aliquots of 142.5 µL were transferred into flat and clear bottom black 96-well plate (Corning Incorporated) and 7.5 µL of ectoine or hydroxyectoine was added to each culture to the required final concentration. Absorbance and fluorescence of cultures were measured using an Infinite Nano+ microplate reader (Tecan). Multiple time point measurements were taken every 10 min over the course of 15-20 hours with a plate reader measuring RFP fluorescence at excitation and emission wavelengths set to 585 nm and 620 nm, respectively, and absorbance at 600 nm. Obtained fluorescence and absorbance values were corrected by subtracting the autofluorescence and absorbance of the culture medium. The absolute normalized fluorescence was determined dividing the fluorescence value by corresponding absorbance value.
The dose-response of biosensors was determined by using single time-point values of fluorescence and absorbance, which were obtained from the multiple time-point measurements 4 h after supplementation of ectoine or hydroxyectoine at different concentrations ranging from 0 to 5 mM. For all assays, the cultures of E. coli and P. putida were prepared as described above, and 142.5 µL of logarithmically growing cells, supplemented with 7.5 µL of ectoine or hydroxyectoine, were cultured in 96-well plate. The fluorescence and absorbance were measured using the same conditions and plate reader as indicated above.
The plasmid pEct-1 was used to characterize biosensor's response to exogenously added ectoine. Experiments were performed to determine the kinetics of induction establishing the time that is required for the system to respond to a change in the ectoine and the dose response of the system. To evaluate biosensor's response to the ectoine, the fluorescence output was quantified.
First, the time course experiments were performed in E. coli and P. putida. Accordingly, cells of both microorganisms harbouring the plasmid pEct-1, were cultivated in minimal medium (MM) at 200 rpm and 30° C (E. coli: Cm 50 mg/L; P. putida: Tet 12.5 mg/L), in the presence and absence of 1 mM ectoine; their optical density (OD600) and RFP fluorescence were monitored over time (Figure 3). In both microorganisms, the RFP expression above the level of the uninduced culture started with 60-90 minutes delay after addition of ectoine (Figure 3 and Figure 4) supporting the notion that the ectoine's catabolic product, the alpha-ADABA, as identified previously [Schultz et al (2017) Environ. Microbiol. 19(11), 4599-4619; Hermann et al (2021) Front. Microbiol. 12, 764731] is the effector that activates gene expression in P. putida. The fluorescence continued to increase throughout the course of 20-hour time course experiment. Importantly, the uninduced baseline (no ectoine) remained at 0 fluorescence units. […] Such "non-leaky" system helps improving the quantification accuracy of reporter fluorescence, but also can be used to control the gene expression that can be harmful or even toxic to a cell. […]

The test system is the same in assay [3]. The assay can be described thus: P. putida-based ectoine biosensor (plasmid pEct-1), RFP reporter fluorescence response. In kind it is cell-based. The procedure: as §1
The dose-response of biosensors was determined by using single time-point values of fluorescence and absorbance, […] ranging from 0 to 5 mM. […] The fluorescence and absorbance were measured using the same conditions and plate reader as indicated above.
The plasmid pEct-1 was used to characterize biosensor's response to exogenously added ectoine. […] To evaluate biosensor's response to the ectoine, the fluorescence output was quantified.
First, the time course experiments were performed in E. coli and P. putida. […] The fluorescence continued to increase throughout the course of 20-hour time course experiment. Importantly, the uninduced baseline (no ectoine) remained at 0 fluorescence units. […]

Setting [4] is: E. coli, MM, 10 hours after supplementation, text does not separate the two hosts.
Setting [5] is: MM, 10 hours after supplementation, text does not separate the two hosts.

Each structure is given as a SMILES string.

For `CC1=NC(C(=O)O)CCN1` (stereo not drawn) [ectoine, 1,4,5,6-tetrahydro-2-methyl-4-pyrimidinecarboxylic acid], the “minimal ectoine concentration needed for observable induction” value in assay [1] is reported as “around 10 mM”. Further, the “delay of RFP expression above the level of the uninduced culture after addition of ectoine” value in assay [2] (1 mM ectoine, MM, 30° C, E. coli) was in the range of 60 to 90 min; in assay [3] (1 mM ectoine, 30° C) it was 60 to 90 min. In assay [2] (E. coli expression organism), the “fold lower minimal ectoine concentration needed for observable induction (applicant's sensor vs AraC-PBAD sensor)” value is given as “around 1000 fold”. The limit of detection result in assay [2] (setting [4]) and in assay [3] (setting [5]) was “below 1 µM” in each case. Moreover, the “range of linear fluorescence response to exogenously present ectoine” value in assay [2] (setting [4]) and in assay [3] (setting [5]) was 1 to 20 µM throughout. For the same compound, the minimal effective concentration in assay [2] (Escherichia coli, applicant's sensor, E. coli expression organism, read-out: minimal ectoine concentration needed for observable induction) worked out at 1 µM.
